Reference: the RepoRT retention time repository (doi:10.1016/j.jchromb.2020.122105)

Tests used:
Conditions in all cases: stereoisomer not certain
[1] = HILIC, Thermo Scientific Accucore HILIC, 100 × 2.1 mm, 2.6 µm, 0.5 mL/min, estimated dead time 0.44 min; A: water + 0.1% formic acid + 10 mM ammonium formate, pH 3; B: 5% water + 95% acetonitrile + 0.1% formic acid + 10 mM ammonium formate, pH 3; gradient (min/%B) 0/95 5/95 20/57 25/57 30/95 40/95
[2] = HILIC, Merck SeQuant ZIC-HILIC, 150 × 2.1 mm, 5 µm, 0.75 mL/min, estimated dead time 0.44 min; A: water + 0.1% acetic acid + 10 mM ammonium acetate, pH 4; B: 5% water + 95% acetonitrile + 0.1% acetic acid + 10 mM ammonium acetate, pH 4; gradient (min/%B) 0/95 5/95 20/57 25/57 30/95 40/95
[3] = HILIC, Waters XBridge BEH Amide, 100 × 2.1 mm, 2.5 µm, 0.5 mL/min, estimated dead time 0.44 min; A: water + 0.1% acetic acid + 10 mM ammonium acetate, pH 4; B: 5% water + 95% acetonitrile + 0.1% acetic acid + 10 mM ammonium acetate, pH 4; gradient (min/%B) 0/95 5/95 20/57 25/57 30/95 40/95
[4] = HILIC, Merck SeQuant ZIC-HILIC, 150 × 2.1 mm, 5 µm, 0.75 mL/min, estimated dead time 0.44 min; A: water + 10 mM ammonium formate, pH 6; B: 5% water + 95% acetonitrile + 10 mM ammonium formate, pH 6; gradient (min/%B) 0/95 5/95 20/57 25/57 30/95 40/95
[5] = RP, Waters CORTECS T3, 100 × 2.1 mm, 2.7 µm, 0.3 mL/min, estimated dead time 0.73 min; A: water + 0.1% formic acid, pH 3; B: methanol + 0.1% formic acid, pH 3; gradient (min/%B) 0/0 1/0 6/5 30/100 35/100 35.1/0 40/0
[6] = RP, Waters CORTECS T3, 100 × 2.1 mm, 2.7 µm, 0.3 mL/min, estimated dead time 0.73 min; A: water + 0.1% formic acid, pH 3; B: methanol + 0.1% formic acid, pH 3; gradient (min/%B) 0/0 5/0 25/100 30/100 30.1/0 35/0
[7] = RP, Waters ACQUITY UPLC BEH C18, 100 × 2.1 mm, 1.7 µm, 0.2 mL/min, estimated dead time 1.1 min; A: water + 0.1% formic acid, pH 3; B: methanol + 0.1% formic acid, pH 3; gradient (min/%B) 0/5 5/5 25/100 30/100 30.1/5 35/5
[8] = RP, Waters ACQUITY UPLC BEH C18, 100 × 2.1 mm, 1.7 µm, 0.1 mL/min, estimated dead time 2.2 min; A: water + 0.1% formic acid, pH 3; B: methanol + 0.1% formic acid, pH 3; gradient (min/%B) 0/5 5/5 25/100 30/100 30.1/5 35/5
[9] = RP, Waters CORTECS T3, 100 × 2.1 mm, 2.7 µm, 0.15 mL/min, estimated dead time 1.5 min; A: water + 0.1% formic acid, pH 3; B: methanol + 0.1% formic acid, pH 3; gradient (min/%B) 0/0 1/0 6/5 30/100 35/100 35.1/0 40/0
[10] = RP, Waters ACQUITY UPLC BEH C18, 100 × 2.1 mm, 1.7 µm, 0.1 mL/min, estimated dead time 2.2 min; A: water + 0.045% formic acid + 0.11% ammonium hydroxide, pH 7; B: methanol; gradient (min/%B) 0/5 5/5 25/95 25.1/100 35/100 35.1/5 45/5
[11] = RP, Waters CORTECS T3, 100 × 2.1 mm, 2.7 µm, 0.2 mL/min, estimated dead time 1.1 min; A: water + 0.1% formic acid, pH 3; B: methanol + 0.1% formic acid, pH 3; gradient (min/%B) 0/5 5/5 25/95 25.1/100 35/100 35.1/5 45/5
[12] = RP, Waters CORTECS T3, 100 × 2.1 mm, 2.7 µm, 0.25 mL/min, estimated dead time 0.88 min; A: water + 0.1% formic acid, pH 3; B: methanol + 0.1% formic acid, pH 3; gradient (min/%B) 0/5 5/5 25/95 25.1/100 35/100 35.1/5 45/5
[13] = RP, Waters CORTECS T3, 100 × 2.1 mm, 2.7 µm, 0.3 mL/min, estimated dead time 0.73 min; A: water + 0.1% formic acid, pH 3; B: methanol + 0.1% formic acid, pH 3; gradient (min/%B) 0/0 5/0 25/100 30/100 30.1/0 35/0; remark: listed apart in the source
[14] = RP, Waters ACQUITY UPLC BEH C18, 100 × 2.1 mm, 1.7 µm, 0.2 mL/min, estimated dead time 1.1 min; A: water + 0.025% formic acid + 20 mM ammonium acetate + 0.055% ammonium hydroxide, pH 7; B: methanol; gradient (min/%B) 0/5 5/5 25/100 30/100 30.1/5 35/5
[15] = as above; remark: listed apart in the source
[16] = RP, Waters ACQUITY UPLC BEH C18, 100 × 2.1 mm, 1.7 µm, 0.1 mL/min, estimated dead time 2.2 min; A: water + 0.1% formic acid, pH 3; B: methanol + 0.1% formic acid, pH 3; gradient (min/%B) 0/5 5/5 25/95 25.1/100 35/100 35.1/5 45/5
[17] = RP, Waters CORTECS T3, 100 × 2.1 mm, 2.7 µm, 0.25 mL/min, estimated dead time 0.88 min; A: water + 0.1% formic acid, pH 3; B: methanol + 0.1% formic acid, pH 3; gradient (min/%B) 0/0 1/0 6/5 30/100 35/100 35.1/0 40/0
[18] = RP, Waters CORTECS T3, 100 × 2.1 mm, 2.7 µm, 0.3 mL/min, estimated dead time 0.73 min; A: water + 0.1% formic acid, pH 3; B: methanol + 0.1% formic acid, pH 3; gradient (min/%B) 0/0 1/0 6/5 30/100 35/100 35.1/0 40/0; remark: listed apart in the source
[19] = RP, Thermo Scientific Hypercarb, 150 × 2.1 mm, 5 µm, 0.1 mL/min, estimated dead time 3.3 min; A: water + 0.1% formic acid, pH 3; B: methanol + 0.1% formic acid, pH 3; gradient (min/%B) 0/5 5/5 20/100 35/100 35.1/5 45/5
[20] = RP, Waters CORTECS T3, 100 × 2.1 mm, 2.7 µm, 0.2 mL/min, estimated dead time 1.1 min; A: water + 0.1% formic acid, pH 3; B: methanol + 0.1% formic acid, pH 3; gradient (min/%B) 0/0 1/0 6/5 30/100 35/100 35.1/0 40/0
[21] = as above; remark: listed apart in the source
[22] = RP, Waters ACQUITY UPLC BEH C18, 100 × 2.1 mm, 1.7 µm, 0.1 mL/min, estimated dead time 2.2 min; A: water + 0.1% formic acid, pH 3; B: methanol + 0.1% formic acid, pH 3; gradient (min/%B) 0/5 5/5 25/95 25.1/100 35/100 35.1/5 45/5; remark: listed apart in the source
[23] = RP, Waters CORTECS T3, 100 × 2.1 mm, 2.7 µm, 0.1 mL/min, estimated dead time 2.2 min; A: water + 0.1% formic acid, pH 3; B: methanol + 0.1% formic acid, pH 3; gradient (min/%B) 0/5 5/5 25/95 25.1/100 35/100 35.1/5 45/5
[24] = RP, Waters CORTECS T3, 100 × 2.1 mm, 2.7 µm, 0.3 mL/min, estimated dead time 0.73 min; A: water + 0.1% formic acid, pH 3; B: methanol + 0.1% formic acid, pH 3; gradient (min/%B) 0/5 5/5 25/100 30/100 30.1/5 35/5
[25] = RP, Waters ACQUITY UPLC BEH C18, 100 × 2.1 mm, 1.7 µm, 0.1 mL/min, estimated dead time 2.2 min; A: water + 0.1% formic acid, pH 3; B: methanol + 0.1% formic acid, pH 3; gradient (min/%B) 0/5 5/5 25/95 25.1/100 35/100 35.1/5 45/5; remark: listed apart in the source
[26] = RP, Waters CORTECS T3, 100 × 2.1 mm, 2.7 µm, 0.3 mL/min, estimated dead time 0.73 min; A: water + 0.1% formic acid, pH 3; B: methanol + 0.1% formic acid, pH 3; gradient (min/%B) 0/5 5/5 25/95 25.1/100 35/100 35.1/5 45/5
[27] = RP, Waters CORTECS T3, 100 × 2.1 mm, 2.7 µm, 0.15 mL/min, estimated dead time 1.5 min; A: water + 0.1% formic acid, pH 3; B: methanol + 0.1% formic acid, pH 3; gradient (min/%B) 0/5 5/5 25/95 25.1/100 35/100 35.1/5 45/5
[28] = RP, Waters CORTECS T3, 100 × 2.1 mm, 2.7 µm, 0.1 mL/min, estimated dead time 2.2 min; A: water + 0.1% formic acid, pH 3; B: methanol + 0.1% formic acid, pH 3; gradient (min/%B) 0/0 1/0 6/5 30/100 35/100 35.1/0 40/0

Row | LC retention time [1] [min] | LC retention time [2] [min] | LC retention time [3] [min] | LC retention time [4] [min] | LC retention time [6] [min] | LC retention time [7] [min] | LC retention time [8] [min] | LC retention time [9] [min] | LC retention time [11] [min] | LC retention time [12] [min] | LC retention time [13] [min] | LC retention time [14] [min] | LC retention time [17] [min] | LC retention time [19] [min] | SMILES | further results
1 | 11.2 | 12.2 | 12.1 | 12.8 | – | – | – | – | – | – | – | – | – | – | CC(O)(CC(=O)O)CC(=O)O [3-HYDROXY-3-METHYLGLUTARATE] | –
2 | 2.08 | – | 2.99 | 2.16 | 0.91 | 1.36 | 2.71 | 1.8 | 2.67 | 1.06 | 0.91 | 1.89 | 1.06 | – | Nc1ncnc2nc[nH]c12 [ADENINE] | LC retention time [5]: 0.9 min; LC retention time [10]: 2.75 min; LC retention time [15]: 3.46 min; LC retention time [16]: 2.65 min; LC retention time [18]: 0.9 min
3 | 15.4 | 16.3 | 15 | 15.9 | – | – | – | – | 2.43 | – | – | 1.36 | – | 4.86 | NCCC(=O)NC(Cc1cnc[nH]1)C(=O)O (configuration not stated) [CARNOSINE] | –
4 | 11.8 | 15.2 | 13.1 | 15 | – | – | – | – | – | – | – | – | – | – | NC(C=O)C(O)C(O)C(O)COS(=O)(=O)O [D-GLUCOSAMINE 6-SULFATE] | –
5 | 9.61 | – | – | – | – | 21.8 | – | – | – | 21.7 | – | 19.5 | – | – | CC(CCC(=O)NCC(=O)O)C1CCC2C3C(O)CC4CC(O)CCC4(C)C3CC(O)C12C (configuration not stated) [GLYCOCHOLATE] | –
6 | 14.9 | – | – | – | – | – | – | – | 2.39 | – | – | – | – | 4.72 | N[C@@H](Cc1cnc[nH]1)C(=O)O [L-HISTIDINE] | –
7 | 9.23 | – | – | – | – | – | – | – | – | – | – | – | – | – | CCCCCCCCCCCC(=O)O [LAURIC ACID] | –
8 | 13 | 13.4 | 13.2 | 13.6 | 0.89 | 1.34 | 2.69 | 1.78 | 2.64 | – | 0.89 | – | 1.09 | 4.9 | CC(=O)NC(CCCCN)C(=O)O [N-ALPHA-ACETYL-L-LYSINE] | LC retention time [20]: 1.35 min; LC retention time [21]: 1.34 min; LC retention time [15]: 1.37 min
9 | – | – | – | – | 16.2 | 17.5 | 20.6 | 20.8 | 22.9 | 16.6 | 16.2 | 12.8 | 18.7 | – | CCCCCCSCC(NC(=O)CCC(N)C(=O)O)C(=O)NCC(=O)O (configuration not stated) [S-HEXYL-GLUTATHIONE] | LC retention time [22]: 21.2 min; LC retention time [5]: 18.1 min; LC retention time [23]: 20.5 min; LC retention time [24]: 15.6 min; LC retention time [20]: 19.5 min; LC retention time [10]: 19.8 min; LC retention time [21]: 19.5 min; LC retention time [25]: 21.2 min; LC retention time [26]: 16 min; LC retention time [27]: 18.5 min; LC retention time [28]: 17.4 min; LC retention time [16]: 21.1 min; LC retention time [18]: 18.1 min
